“Also recorded” adds a separate entry of the source.
Legend:
[1] = system: AMPK β1 S108A mutant (ADaM-binding site mutant); assay: pACC HTRF assay in AMPKβ1/β2 double knockout U-2 OS cells stably expressing β1 S108A mutant; assay type: cell-based, human; conditions: varying concentrations
Excerpt: (§1) AMPKβ1/β2 double knockout U-2 OS Flp-In™ T-Rex™ cell lines were generated by Horizon Discovery (Cambridge, UK). Cells were genotyped and analysed by western blotting to confirm that there was a complete knockout of AMPKβ1/β2. We took these AMPKβ1/β2 double knockout cells, and re-introduced the expression of human β1 wild-type (WT) or a […] Serine 108 to alanine mutation (S108A). This was achieved using the Flp-In™ system (Invitrogen) present in this cell line and stable cells expressing β1 WT or a β1 S108A mutant were generated according to the manufacturers' protocols. Re-expression of the β1 subunit was confirmed by Western blot analysis.
(§2) Cells stably expressing β1 WT or a β1 S108A mutant were treated with varying concentrations of Compound 1 and subjected to the pACC HTRF (Cisbio) assay to determine the level of phosphorylation of the AMPK substrate, ACC, in cell lysates.

AMPK = assay: pACC HTRF assay in U-2 OS Flp-In T-REx cells; assay type: cell-based; conditions: 30 mins, varying concentrations, HTRF 665 nm/620 nm ratio
Method: U-2 OS Flp-In T-REx cells were seeded at 50 K in a 96-well plate and left overnight at 37 C in DMEM GlutaMAX (Thermo Fisher Scientific) supplemented with 10% (vol/vol) FBS and 100 U/ml penicillin G, and 100 μg/ml streptomycin. Cells were treated for 30 mins with varying concentrations of Compound 1 in media lacking FBS and then cells were lysed in 50 μl of Cisbio lysis buffer #1 supplemented with blocking solution as per the manufacturer's protocol (Cisbio). Cells were lysed for 30 mins at room temperature before 16 μl of lysate was incubated with 4 μl of the HTRF antibodies (1:40 dilution of the acceptor and donor (p)ACC antibodies, as per the manufacturers protocol). Lysates were incubated overnight with the antibodies before 665 nm/620 nm ratio was determined using a MolecularDevices i3 plate reader (with a HTRF cartridge add-on).
Phosphorylation of ACC is widely used as a cellular indicator of AMPK activity.

AMPK β2 WT isoform = assay: pACC HTRF assay in AMPKβ1/β2 double knockout U-2 OS cells stably expressing β2 WT; assay type: cell-based, human; conditions: varying concentrations
Method: (§3) AMPKβ1/β2 double knockout cells were used and re-introduced the expression of human β1 WT or β2 WT isoforms. […] Cells stably expressing β1 WT or β2 were treated with varying concentrations of Compound 1 and subjected to the pACC HTRF (Cisbio) assay to determine the level of phosphorylation of the AMPK substrate, ACC, in cell lysates, as in Example 1.
This activation profile is characteristic of activators that bind to the ADaM site and consistent with previous studies showing that ADaM-site activators have poorer activation of β2-containing complexes in vitro and in cells.

AMPK β1 WT = assay: pACC HTRF assay in AMPKβ1/β2 double knockout U-2 OS cells stably expressing β1 WT; assay type: cell-based, human; conditions: varying concentrations
Excerpt: as §1, §2, §3

## COc1cc(O)c2c(c1)c(=O)oc1cc(O)ccc12 [Compound 1, 3,10-Dihydroxy-8-methoxy-6H-benzo[c]chromen-6-one]
[1]
  phosphorylation of the AMPK substrate, ACC (pACC); AMPK activation: does not activate AMPK; also recorded: not able to increase pACC
AMPK
  phosphorylation of the AMPK substrate, ACC (pACC): increases the phosphorylation of the AMPK substrate, ACC, in a dose-dependent manner
AMPK β2 WT isoform
  phosphorylation of the AMPK substrate, ACC (pACC); AMPK activation: does not activate AMPK; also recorded: not able to increase pACC
AMPK β1 WT
  phosphorylation of the AMPK substrate, ACC (pACC); AMPK activation: activates AMPK; also recorded: able to dose-dependently increase pACC

From patent publication US20230048350A1, “BENZOCOUMARIN AMPK ACTIVATOR COMPOUNDS, COMPOSITIONS, METHODS AND USES THEREOF” (SOCIETE DES PRODUITS NESTLE S.A., priority 2019, published 2023)
